The text below walks through data of US20250101028A1, “HETEROCYCLIC COMPOUNDS, COMPOSITIONS THEREOF, AND METHODS OF TREATMENT THEREWITH” (BeiGene, Ltd., priority 2022, published 2025).

The assay deals with T1, GST-tagged GDP-loaded KRAS G12V (amino acids 1-169) (Homo sapiens, UniProt P01116, G12V).
T1 construct: GST-tagged GDP-loaded KRAS G12V (amino acids 1-169); made in house; host or cells: E. coli
T1 sequence (P01116 1-169 isoform P01116-2 G12V): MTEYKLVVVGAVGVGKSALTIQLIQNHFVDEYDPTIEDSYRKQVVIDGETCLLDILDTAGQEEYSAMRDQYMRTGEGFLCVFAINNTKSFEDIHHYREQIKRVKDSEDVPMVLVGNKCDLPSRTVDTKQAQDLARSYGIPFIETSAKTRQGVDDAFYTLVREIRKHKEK
Nature of the assay: KRAS G12V probe displacement assay (TR-FRET). The settings on record: displacement of biotinylated probe 2 from GDP-loaded KRAS G12V. It is filed as binding. On the procedure: KRAS WT and KRAS G12V Probe Displacement Assay
This assay was used to identify compounds which bind to GDP-loaded KRAS protein and are able to displace a biotinylated probe occupying the KRAS binding site. GST-tagged GDP-loaded WT KRAS (amino acids 1-169) and GST-tagged GDP-loaded KRAS G12V (amino acids 1-169) were expressed in E. coli and purified in house. All protein and reaction solutions were prepared in assay buffer containing 50 mM HEPES pH7.5, 50 mM NaCl, 1 mM MgCl2, 1 mM TCEP, 0.01% BSA, and 0.008% Brij-35. Purified WT KRAS (3 nM final concentration) or KRAS G12V protein (2 nM final concentration) was incubated with a 3-fold serially diluted compound in the assay plate (384 well microplate, black, Corning). Plates are incubated at 24° C. for 1 hr. Following the incubation, biotinylated probe 1 (60 nM final assay concentration) for WT KRAS and biotinylated probe 2 (2.5 nM final assay concentration) for KRAS G12V was added to the assay plate, respectively. After 1 hr incubation at 24° C., Mab Anti-GST-Tb cryptate (Cisbio) and Streptavidin-XL665 (Cisbio) were added and further incubated at 24° C. for another 1 hr. The TR-FRET signals (ex337 nm, em665 nm/620 nm) were read on BMG PHERAstar FSX instrument. The inhibition percentage of KRAS protein binding with biotinylated probe in presence of increasing concentrations of compounds was calculated based on the ratio of fluorescence at 665 nm to that at 620 nm. The IC50 value of each compound was calculated from fitting the data to the four-parameter logistic model by Dotmatics.
On to `N#CCC1CCN(c2nc(OC[C@@]34CCCN3C[C@H](F)C4)nc3c(F)c(-c4ccc(F)c5sc(N)nc45)c(C(F)(F)F)cc23)CC1` [Example 71, 2-(1-(7-(2-amino-7-fluorobenzo[d]thiazol-4-yl)-8-fluoro-2-(((2R,7aS)-2-fluorotetrahydro-1H-pyrrolizin-7a(5H)-yl)methoxy)-6-(trifluoromethyl)quinazolin-4-yl)piperidin-4-yl)acetonitrile], for which the IC50 is 10 nM.

On to `CO[C@H]1C[C@@H](Nc2nc(OC[C@@]34CCCN3C[C@H](F)C4)nc3c(F)c(-c4ccc(F)c5sc(N)nc45)c(C(F)(F)F)cc23)C1` [Example 13, 7-fluoro-4-(8-fluoro-2-(((2R,7aS)-2-fluorotetrahydro-1H-pyrrolizin-7a(5H)-yl)methoxy)-4-(((cis)-3-methoxycyclobutyl)amino)-6-(trifluoromethyl)quinazolin-7-yl)benzo[d]thiazol-2-amine], for which the IC50 is 20 nM.

`N#C[C@H]1C[C@H](Nc2nc(OC[C@@]34CCCN3C[C@H](F)C4)nc3c(F)c(-c4ccc(F)c5sc(N)nc45)c(C(F)(F)F)cc23)C1` [Example 19, (trans)-3-((7-(2-amino-7-fluorobenzo[d]thiazol-4-yl)-8-fluoro-2-(((2R,7aS)-2-fluorotetrahydro-1H-pyrrolizin-7a(5H)-yl)methoxy)-6-(trifluoromethyl)quinazolin-4-yl)amino)cyclobutane-1-carbonitrile] came in with an IC50 of 9.9 nM.

Molecule `Nc1nc2c(-c3c(C(F)(F)F)cc4c(NC5C6CCCC65)nc(OC[C@@]56CCCN5C[C@H](F)C6)nc4c3F)ccc(F)c2s1` (stereo partly drawn) [Example 8, 4-(4-(bicyclo[3.1.0]hexan-6-ylamino)-8-fluoro-2-(((2R,7aS)-2-fluorotetrahydro-1H-pyrrolizin-7a(5H)-yl)methoxy)-6-(trifluoromethyl)quinazolin-7-yl)-7-fluorobenzo[d]thiazol-2-amine] returned a half-maximal inhibitory concentration (IC50) of 43 nM.

For `Nc1nc2c(-c3c(C(F)(F)F)cc4c(NC5CCC5)nc(OC[C@@]56CCCN5C[C@H](F)C6)nc4c3F)ccc(F)c2s1` [Example 10, 4-(4-(cyclobutylamino)-8-fluoro-2-(((2R,7aS)-2-fluorotetrahydro-1H-pyrrolizin-7a(5H)-yl)methoxy)-6-(trifluoromethyl)quinazolin-7-yl)-7-fluorobenzo[d]thiazol-2-amine], the IC50 worked out at 19 nM.

Regarding `CCC1CC1Nc1nc(OC[C@@]23CCCN2C[C@H](F)C3)nc2c(F)c(-c3ccc(F)c4sc(N)nc34)c(C(F)(F)F)cc12` (stereo partly shown) [Example 4], the IC50 is 29 nM.

`Nc1nc2c(-c3c(Cl)cc4c(NC5CC5)nc(OC[C@@]56CCCN5C[C@H](F)C6)nc4c3F)ccc(F)c2s1` [Example 28, 4-(6-chloro-4-(cyclopropylamino)-8-fluoro-2-(((2R,7aS)-2-fluorotetrahydro-1H-pyrrolizin-7a(5H)-yl)methoxy)quinazolin-7-yl)-7-fluorobenzo[d]thiazol-2-amine] showed an IC50 of 3.8 nM.

The molecule `Nc1nc2c(-c3c(C(F)(F)F)cc4c(N5CC(CO)C5)nc(OC[C@@]56CCCN5C[C@H](F)C6)nc4c3F)ccc(F)c2s1` [Example 48, (1-(7-(2-amino-7-fluorobenzo[d]thiazol-4-yl)-8-fluoro-2-(((2R,7aS)-2-fluorotetrahydro-1H-pyrrolizin-7a(5H)-yl)methoxy)-6-(trifluoromethyl)quinazolin-4-yl)azetidin-3-yl)methanol] had an IC50 of 4.1 nM.

`CC1CC(C#N)CCN1c1nc(OC[C@@]23CCCN2C[C@H](F)C3)nc2c(F)c(-c3cc(N)cc(Cl)c3C(F)(F)F)ncc12` (stereo partly drawn) [Example 124, 1-(7-(5-amino-3-chloro-2-(trifluoromethyl)phenyl)-8-fluoro-2-(((2R,7aS)-2-fluorotetrahydro-1H-pyrrolizin-7a(5H)-yl)methoxy)pyrido[4,3-d]pyrimidin-4-yl)-2-methylpiperidine-4-carbonitrile] yielded an IC50 of 15 nM.

Molecule `N#C[C@@H]1CCN(c2nc(OC[C@@]34CCCN3C[C@H](F)C4)nc3c(F)c(-c4ccc(F)c5sc(N)nc45)c(C(F)(F)F)cc23)C[C@H]1O` (mixture of isomers) [Example 75, 1-(7-(2-amino-7-fluorobenzo[d]thiazol-4-yl)-8-fluoro-2-(((2R,7aS)-2-fluorotetrahydro-1H-pyrrolizin-7a(5H)-yl)methoxy)-6-(trifluoromethyl)quinazolin-4-yl)-trans-3-hydroxypiperidine-4-carbonitrile] had a 50% inhibitory concentration (IC50) of 3.8 nM.

Take `CCC1(O)CCCN(c2nc(OC[C@@]34CCCN3C[C@H](F)C4)nc3c(F)c(-c4cc(N)cc(Cl)c4C(F)(F)F)ncc23)C1` (stereo partly drawn) [Example 130, 1-(7-(5-amino-3-chloro-2-(trifluoromethyl)phenyl)-8-fluoro-2-(((2R,7aS)-2-fluorotetrahydro-1H-pyrrolizin-7a(5H)-yl)methoxy)pyrido[4,3-d]pyrimidin-4-yl)-3-ethylpiperidin-3-ol]: the IC50 was found to be 32 nM.

Molecule `N#CC1CCN(c2nc(OC[C@@]34CCCN3C[C@H](F)C4)nc3c(F)c(-c4cc(N)cc(Cl)c4C(F)(F)F)ncc23)CC1` [Example 121, 1-(7-(5-amino-3-chloro-2-(trifluoromethyl)phenyl)-8-fluoro-2-(((2R,7aS)-2-fluorotetrahydro-1H-pyrrolizin-7a(5H)-yl)methoxy)pyrido[4,3-d]pyrimidin-4-yl)piperidine-4-carbonitrile] displayed an IC50 of 13 nM.

With `N#C[C@H]1CCC[C@H]1Nc1nc(OC[C@@]23CCCN2C[C@H](F)C3)nc2c(F)c(-c3ccc(F)c4sc(N)nc34)c(C(F)(F)F)cc12` [Example 26, (1S,2R)-2-((7-(2-amino-7-fluorobenzo[d]thiazol-4-yl)-8-fluoro-2-(((2R,7aS)-2-fluorotetrahydro-1H-pyrrolizin-7a(5H)-yl)methoxy)-6-(trifluoromethyl)quinazolin-4-yl)amino)cyclopentane-1-carbonitrile], the IC50 was 11 nM.

The molecule `N#CCC1CCN(c2nc(OC[C@@]34CCCN3C[C@H](F)C4)nc3c(F)c(-c4ccc(F)c5sc(N)nc45)c(C(F)(F)F)cc23)C1` (stereo partly drawn) [Example 61, 2-(1-(7-(2-amino-7-fluorobenzo[d]thiazol-4-yl)-8-fluoro-2-(((2R,7aS)-2-fluorotetrahydro-1H-pyrrolizin-7a(5H)-yl)methoxy)-6-(trifluoromethyl)quinazolin-4-yl)pyrrolidin-3-yl)acetonitrile] registered a 50% inhibitory concentration (IC50) of 14 nM.

For the molecule `N#CC1CCN(c2nc(OC[C@@]34CCCN3C[C@H](F)C4)nc3c(F)c(-c4cc(N)cc(Cl)c4C(F)(F)F)ncc23)CC1F` (stereo partly drawn) [Example 122, 1-(7-(5-amino-3-chloro-2-(trifluoromethyl)phenyl)-8-fluoro-2-(((2R,7aS)-2-fluorotetrahydro-1H-pyrrolizin-7a(5H)-yl)methoxy)pyrido[4,3-d]pyrimidin-4-yl)-3-fluoropiperidine-4-carbonitrile], the IC50 is 28 nM.

`CC[C@H]1CCCN1c1nc(OC[C@@]23CCCN2C[C@H](F)C3)nc2c(F)c(-c3ccc(F)c4sc(N)nc34)c(C(F)(F)F)cc12` [Example 59, 4-(4-((S)-2-ethylpyrrolidin-1-yl)-8-fluoro-2-(((2R,7aS)-2-fluorotetrahydro-1H-pyrrolizin-7a(5H)-yl)methoxy)-6-(trifluoromethyl)quinazolin-7-yl)-7-fluorobenzo[d]thiazol-2-amine] showed a half-maximal inhibitory concentration (IC50) of 27 nM.

In general, IC50 refers to the concentration needed to halve the response being measured. A lower IC50 goes with higher potency.
